Patent publication US8835462B2, “Macrocyclic picolinamides as fungicides” (Dow AgroSciences LLC, priority 2012, dated 2014)
Read-outs that look alike come from different tables or passages of the source.

Legend:
Type in all cases: in vivo
[1] = system: Mycosphaerella graminicola; Anamorph: Septoria tritici; assay: Leaf blotch of wheat (SEPTTR) fungicidal activity on wheat seedlings; conditions: Zymoseptoria tritici
Protocol: Evaluation of Fungicidal Activity: Leaf Blotch of Wheat (Mycosphaerella Graminicola; Anamorph: Septoria tritici; Bayer Code […]) Technical grades of materials were dissolved in acetone, which were then mixed with nine volumes of water containing 110 ppm Triton X-100. The fungicide solutions were applied onto wheat seedlings using an automated booth sprayer to run-off. All sprayed plants were allowed to air dry prior to further handling. Wheat plants (variety Yuma) were grown from seed in a greenhouse in 50% mineral soil/50% soil-less Metro mix until the first leaf was fully emerged, with 7-10 seedlings per pot. These plants were inoculated with an aqueous spore suspension of Septoria tritici either prior to or after fungicide treatments. After inoculation the plants were kept in 100% relative humidity (one day in a dark dew chamber followed by two to three days in a lighted dew chamber at 20° C.) to permit spores to germinate and infect the leaf. The plants were then transferred to a greenhouse set at 20° C. for disease to develop. When disease symptoms were fully expressed on the 1st leaves of untreated plants, infection levels were assessed on a scale of 0 to 100 percent disease severity. Percent disease control was calculated using the ratio of disease severity on treated plants relative to untreated plants.

Puccinia triticina [2] = assay: Wheat brown rust (PUCCRT) fungicidal activity on wheat seedlings
Protocol: Technical grades of materials were dissolved in acetone, which were then mixed with nine volumes of water containing 110 ppm Triton X-100. The fungicide solutions were applied onto wheat seedlings using an automated booth sprayer to run-off. All sprayed plants were allowed to air dry prior to further handling. Wheat plants (variety Yuma) were grown from seed in a greenhouse in 50% mineral soil/50% soil-less Metro mix until the first leaf was fully emerged, with 7-10 seedlings per pot. These plants were inoculated with an aqueous spore suspension of Septoria tritici either prior to or after fungicide treatments. After inoculation the plants were kept in 100% relative humidity (one day in a dark dew chamber followed by two to three days in a lighted dew chamber at 20° C.) to permit spores to germinate and infect the leaf. The plants were then transferred to a greenhouse set at 20° C. for disease to develop. When disease symptoms were fully expressed on the 1st leaves of untreated plants, infection levels were assessed on a scale of 0 to 100 percent disease severity. Percent disease control was calculated using the ratio of disease severity on treated plants relative to untreated plants. Evaluation of Fungicidal Activity: Wheat Brown Rust (Puccinia triticina; Synonym: Puccinia recondita f. sp. tritici; Bayer Code PUCCRT) Wheat plants (variety Yuma) were grown from seed in a greenhouse in 50% mineral soil/50% soil-less Metro mix until the first leaf was fully emerged, with 7-10 seedlings per pot. These plants were inoculated with an aqueous spore suspension of Puccinia triticina either prior to or after fungicide treatments. After inoculation the plants were kept in a dark dew room at 22° C. with 100% relative humidity overnight to permit spores to germinate and infect the leaf. The plants were then transferred to a greenhouse set at 24° C. for disease to develop. Fungicide formulation, application and disease assessment followed the procedures as described in the Example A.

Puccinia triticina [3] = assay: Fungicide mobility (dropline mobility test), wheat brown rust (PUCCRT); conditions: 1 ug/leaf, disease-free zone as percent of distance from marked line to leaf tip; for Dropline Mobility Test PUCCRT 1 DPM: 1 Day Protectant Mobility; for Dropline Mobility Test PUCCRT 3 DCM: 3 Day Curative Mobility
Protocol: Evaluation of Fungicide Mobility: Wheat Brown Rust (Puccinia Triticina; Synonym: Puccinia recondita f. sp. Tritici; Bayer Code PUCCRT):
“Yuma” wheat seedlings were used in the test. One mg of compound was dissolved in 9 μl of EC blank (emulsifiable concentrate) and 500 μl of acetone. Acetone was then evaporated overnight by leaving the vial open in a fume hood. Two milliliters of water containing 110 ppm Triton X-100 was added to each vial to prepare application solutions. A […] drop of formulated material was applied to a marked line on the adaxial surface 5 cm from the leaf tip of the primary leaves. The primary leaves were kept in a horizontal position. Each treatment had 6 replicates. Plants were inoculated with PUCCRT 1-day after (1DPM) or 3-day prior to (3DCM) compound applications. When rust was fully expressed on primary leaves on control plants, the zone of treated leaves that was disease-free in the acropetal direction was measured with a ruler and converted to percent of the distance from marked line to leaf tip.

[4] = 24 h, 1 Day Protectant, read-out: Disease Control SEPTTR 1 DP
[5] = 72 h, 3 Day Curative, read-out: Disease Control SEPTTR 3 DC
[6] = 24 h, 1 Day Protectant, read-out: Disease Control PUCCRT 1 DP
[7] = 72 h, 3 Day Curative, read-out: Disease Control PUCCRT 3 DC

SMILES | pest or weed control at 100 ppm [1, 4] [%] | pest or weed control at 100 ppm [1, 5] [%] | pest or weed control at 100 ppm (Puccinia triticina [2]; [6]) [%] | pest or weed control at 100 ppm (Puccinia triticina [2]; [7]) [%] | Dropline Mobility Test PUCCRT 1 DPM (Puccinia triticina [3]) | Dropline Mobility Test PUCCRT 3 DCM (Puccinia triticina [3])
COC(=O)CCO[C@@H]1[C@@H](Cc2ccccc2)COC[C@H](NC(=O)c2nccc(OC)c2O)C(=O)O[C@H]1C [Compound 11] | 0 to 80 | 0 to 80 | 0 to 80 | 0 to 80 | – | –
COC(=O)CCO[C@@H]1[C@@H](Cc2ccccc2)COC[C@H](NC(=O)c2nccc(OC)c2OCOC(C)=O)C(=O)O[C@H]1C [Compound 12] | 0 to 80 | 0 to 80 | 80 to 100 | 0 to 80 | – | –
COc1ccnc(C(=O)N[C@H]2COC[C@H](Cc3ccccc3)[C@@H](OCCC(=O)N(C)C)[C@H](C)OC2=O)c1O [Compound 13] | 0 to 80 | 0 to 80 | – | 0 to 80 | – | –
COCCCO[C@@H]1[C@@H](Cc2ccccc2)COC[C@H](NC(=O)c2nccc(OC)c2O)C(=O)O[C@H]1C [Compound 14] | 80 to 100 | 0 to 80 | 80 to 100 | 80 to 100 | – | –
COc1ccnc(C(=O)N[C@H]2COC[C@H](Cc3ccccc3)[C@@H](OCCCC(F)(F)F)[C@H](C)OC2=O)c1O [Compound 18] | 80 to 100 | 80 to 100 | 80 to 100 | 80 to 100 | B (More than 0-Less than 80) | B (More than 0-Less than 80)
COc1ccnc(C(=O)N[C@H]2COC[C@H](Cc3ccccc3)[C@@H](OC/C=C/C(F)(F)F)[C@H](C)OC2=O)c1O [Compound 20] | 0 to 80 | 0 to 80 | 0 to 80 | 0 to 80 | B (More than 0-Less than 80) | –
CCCC(C)O[C@@H]1[C@@H](Cc2ccccc2)COC[C@H](NC(=O)c2nccc(OC)c2OCOC(C)=O)C(=O)O[C@H]1C (stereo partly shown) [Compound 24] | 80 to 100 | 80 to 100 | 80 to 100 | 80 to 100 | B (More than 0-Less than 80) | B (More than 0-Less than 80)
COc1ccnc(C(=O)N[C@H]2COC[C@H](Cc3ccccc3)[C@@H](OC/C=C/C(F)(F)F)[C@H](C)OC2=O)c1OCOC(C)=O [Compound 25] | 80 to 100 | 80 to 100 | 80 to 100 | 80 to 100 | B (More than 0-Less than 80) | –
COC(=O)/C=C/O[C@@H]1[C@@H](Cc2ccccc2)COC[C@H](NC(=O)c2nccc(OC)c2O)C(=O)O[C@H]1C [Compound 27] | 0 to 80 | 0 to 80 | 80 to 100 | 0 to 80 | B (More than 0-Less than 80) | B (More than 0-Less than 80)
COc1ccnc(C(=O)N[C@H]2COC[C@H](Cc3ccccc3)[C@@H](OCCCc3ccccc3)[C@H](C)OC2=O)c1O [Compound 28] | 0 to 80 | 0 to 80 | 80 to 100 | 80 to 100 | B (More than 0-Less than 80) | –
COc1ccnc(C(=O)N[C@H]2COC[C@H](Cc3ccccc3)[C@@H](OC3CCCCC3)[C@H](C)OC2=O)c1O [Compound 29] | 0 to 80 | 80 to 100 | 80 to 100 | 80 to 100 | B (More than 0-Less than 80) | B (More than 0-Less than 80)
COc1ccnc(C(=O)N[C@H]2COC[C@H](Cc3ccccc3)[C@@H](OC(=O)c3ccccc3)[C@H](C)OC2=O)c1O [Compound 30] | 0 to 80 | 0 to 80 | 80 to 100 | 0 to 80 | B (More than 0-Less than 80) | –
COc1ccnc(C(=O)N[C@H]2COC[C@H](Cc3ccccc3)[C@@H](OC(=O)C3CC3)[C@H](C)OC2=O)c1O [Compound 31] | 80 to 100 | 80 to 100 | 80 to 100 | 80 to 100 | B (More than 0-Less than 80) | B (More than 0-Less than 80)
COc1ccnc(C(=O)N[C@H]2COC[C@H](Cc3ccccc3)[C@@H](Oc3ccccc3)[C@H](C)OC2=O)c1O [Compound 33] | 80 to 100 | 80 to 100 | 80 to 100 | 80 to 100 | B (More than 0-Less than 80) | –
COc1ccnc(C(=O)N[C@H]2COC[C@H](Cc3ccccc3)[C@@H](OC3CCCCC3)[C@H](C)OC2=O)c1OCOC(C)=O [Compound 35] | 80 to 100 | 80 to 100 | 80 to 100 | 80 to 100 | B (More than 0-Less than 80) | –
COc1ccnc(C(=O)N[C@H]2COC[C@H](Cc3ccccc3)[C@@H](OCCC(C)C)[C@H](C)OC2=O)c1O [Compound 41] | 0 to 80 | 0 to 80 | 80 to 100 | 0 to 80 | B (More than 0-Less than 80) | B (More than 0-Less than 80)
COc1ccnc(C(=O)N[C@H]2COC[C@H](Cc3ccccc3)[C@@H](OCCC(C)C)[C@H](C)OC2=O)c1OCOC(C)=O [Compound 42] | 80 to 100 | 80 to 100 | 80 to 100 | 80 to 100 | B (More than 0-Less than 80) | B (More than 0-Less than 80)
COc1ccnc(C(=O)N[C@H]2COC[C@H](Cc3ccccc3)[C@@H](OCC(F)F)[C@H](C)OC2=O)c1O [Compound 43] | 80 to 100 | 80 to 100 | 80 to 100 | 80 to 100 | A (80-100) | B (More than 0-Less than 80)
COc1ccnc(C(=O)N[C@H]2COC[C@H](Cc3ccccc3)[C@@H](OCCC(C)OC)[C@H](C)OC2=O)c1O (stereo partly shown) [Compound 45] | 80 to 100 | 80 to 100 | 80 to 100 | 80 to 100 | A (80-100) | A (80-100)
COc1ccnc(C(=O)N[C@H]2COC[C@H](Cc3ccccc3)[C@@H](OC3CCCC3)[C@H](C)OC2=O)c1O [Compound 105] | 80 to 100 | 80 to 100 | 80 to 100 | 80 to 100 | – | –
